In brackets after ≈: the same amount, converted by molar mass.
Key:
[1] = system: testosterone induced BPH model rats; test: Prostate growth in testosterone-induced BPH model rats; type: in vivo, Wistar rats; conditions: 28 days; for Growth inhibition (%): prostate growth, Fina group, 1 mg/kg, mean ± SD n = 6
[2] = system: testosterone induced BPH model rats; test: Histopathological examination of prostate tissue of BPH model rats; type: in vivo, Wistar rats; conditions: H&E stained sections
[3] = system: testosterone induced BPH model rats; test: Antioxidant activity in prostate tissue of BPH model rats (SOD, catalase, GSH, glutathione reductase); type: in vivo, Wistar rats; conditions: Finasteride 1 mg/kg, in comparison with BPH group (p<0.001)
[4] = molecular target: 5-alpha-reductase; test: In vitro 5-alpha-reductase assay (NADPH absorbance at 340 nm, liver S9 fraction); type: biochemical; conditions: 20 μg liver S9 fraction, 6 minutes at 37° C., Finasteride 20-70 ng/mL
Method: In vitro 5-alpha-reductase assay was performed according to Sun et al. (1998) with some modifications. NADPH has characteristic absorbance at 340 nm, and the absorbance spectrum may be used to measure the decline in NADPH concentration as a measure of enzyme activity. Briefly, the reaction mixture contained 40 mM phosphate buffer pH 7.0, 93 μM NADPH, 2.265 μM testosterone and 20 μg liver S9 fraction with or without different concentrations of the extract (2-6 μg/mL) or reference compound Finasteride (20-70 ng/mL), incubated for 6 minutes at 37° C. The absorbance was read at 340 nm in UV-visible spectrophotometer. IC50 values were determined for the extract and Finasteride.

IC50 value, 5-alpha-reductase activity [4]: 0.0632 µg/mL (≈ 0.17 µM)
Structure (SMILES): CC(C)(C)NC(=O)[C@H]1CC[C@H]2[C@@H]3CC[C@H]4NC(=O)C=C[C@]4(C)[C@H]3CC[C@]12C [Finasteride]
prostate weights ([1]; in comparison with BPH control (p<0.001)): reduced significantly
Growth inhibition (%) [1]: 90.22%
Growth inhibition (%) ([1]; listed as Fina): 90.22 ± 10.85%
pathological changes (hyperplastic patterns) in prostate tissue [2]: not evident
SOD activity [3]: significantly increased
